# Assay results from patent US11807625B2, “Capsid inhibitors for the prevention of HIV” (Gilead Sciences, Inc., priority 2019, dated 2023).
# Where two headings read alike, the source gives them in different places.
# Experiment: PK of compound of Formula (Ia) after single subcutaneous dose of solution formulations in beagle dogs
# Format: in vivo
# Settings: male, beagle, dog, plasma, sc, 12 mg/kg, mean ± SD
# Method: Formulations containing the compound of Formula (Ia), or a pharmaceutically acceptable salt thereof, were prepared as solutions and optionally administered subcutaneously or intramuscularly to rats, rabbits, and/or dogs.
# A solution of about 400 mg/mL of the compound of Formula (Ia) having 17.00 w/w % water, 36.40 w/w % PEG 300, 35.20 w/w % of a sodium salt of a compound of Formula (Ia), 5.00 w/w % ethanol, and 6.40 w/w % poloxamer 188 was prepared. The solution was administered subcutaneously to male beagle dogs at a dose level of about 12 mg/kg and male Wistar Han rats at a dose level of about 50 mg/kg. The pharmacokinetic profiles were determined, and the results for dogs are summarized in Table and Table, while the results for rats are summarized in Table and Table below.
# A solution of about 500 mg/mL of the compound of Formula (Ia) having 14.06 w/w % water, 30.12 w/w % PEG 300, […] of a sodium salt of a compound of Formula (Ia), 5.00 w/w % ethanol, and 6.40 w/w % poloxamer 188 was prepared. The solution was administered subcutaneously to male beagle dogs at a dose level of about 12 mg/kg and male Wistar Han rats at a dose level of about 50 mg/kg. The pharmacokinetic profiles were determined, and the results for dogs are summarized in Table and Table, while the results for rats are summarized in Table and Table below.
# A solution of about 300 mg/mL of the compound of Formula (Ia) having 23.33 w/w % water, 48.99 w/w % PEG 300, 26.47 w/w % of a sodium salt of a compound of Formula (Ia), and 1.21 w/w % poloxamer 188 was prepared. The solution was administered subcutaneously to male beagle dogs at a dose level of about 6 mg/kg and male Wistar Han rats at a dose level of about 50 mg/kg. The pharmacokinetic profiles were determined, and the results for dogs are summarized in Table and Table, while the results for rats are summarized in Table and Table below.
# A solution of about 400 mg/mL of the compound of Formula (Ia) having 18.80 w/w % water, 40.25 w/w % PEG 300, 34.38 w/w % of a sodium salt of a compound of Formula (Ia), 5.00 w/w % ethanol, and 1.57 w/w % poloxamer 188 was prepared. The solution was administered subcutaneously to male beagle dogs at a dose level of about 12 mg/kg and male Wistar Han rats at a dose level of about 50 mg/kg. The pharmacokinetic profiles were determined, and the results for dogs are summarized in Table and Table, while the results for rats are summarized in Table and Table below.
# A solution of about 500 mg/mL of the compound of Formula (Ia) having 16.29 w/w % water, 34.88 w/w % PEG 300, 41.92 w/w % of a sodium salt of a compound of Formula (Ia), 5.00 w/w % ethanol, and 1.91 w/w % poloxamer 188 was prepared. The solution was administered subcutaneously to male beagle dogs at a dose level of about 12 mg/kg and male Wistar Han rats at a dose level of about 50 mg/kg. The pharmacokinetic profiles were determined, and the results for dogs are summarized in Table and Table, while the results for rats are summarized in Table and Table below.
# A solution of about 400 mg/mL of the compound of Formula (Ia) having 20.90 w/w % water, 44.72 w/w % PEG 300, and 34.38 w/w % of a sodium salt of a compound of Formula (Ia) was prepared. The solution was administered subcutaneously to male beagle dogs at a dose level of about 12 mg/kg and male Wistar Han rats at a dose level of about 50 mg/kg. The pharmacokinetic profiles were determined, and the results for dogs are summarized in Table and Table, while the results for rats are summarized in Table and Table below.
# A solution of about 400 mg/mL of the compound of Formula (Ia) having 19.90 w/w % water, 42.59 w/w % PEG 300, 34.38 w/w % of a sodium salt of a compound of Formula (Ia), and 3.13 w/w % poloxamer 188 was prepared. The solution was administered subcutaneously to male beagle dogs at a dose level of about 12 mg/kg and male Wistar Han rats at a dose level of about 50 mg/kg. […]
# [1] = n = 3 dogs, SC 12 mg/kg, solution T, 400 mg/mL
# [2] = n = 3 dogs, SC 12 mg/kg, solution U, 500 mg/mL
smiles,measurement,setting,value
CC(C)(C#Cc1ccc(-c2ccc(Cl)c3c(NS(C)(=O)=O)nn(CC(F)(F)F)c23)c([C@H](Cc2cc(F)cc(F)c2)NC(=O)Cn2nc(C(F)(F)F)c3c2C(F)(F)[C@@H]2C[C@H]32)n1)S(C)(=O)=O [compound of Formula (Ia)],AUC(0-t),"male beagle dogs, single SC 12 mg/kg, 400 mg/mL solution Z (3.13% poloxamer 188), n = 3, read-out: AUC0-3024 h",175 ± 32 µM·h
same,AUC(0-t),"male beagle dogs, single SC 12 mg/kg, 400 mg/mL solution Z (3.13% poloxamer 188), n = 3, read-out: AUC0-3696 h",177 ± 31 µM·h
same,Cmax,"male beagle dogs, single SC 12 mg/kg, 500 mg/mL solution X (5.00% ethanol, 1.91% poloxamer 188), n = 3",125 ± 95 nM
same,AUC(0-t),"male beagle dogs, single SC 12 mg/kg, 500 mg/mL solution X (5.00% ethanol, 1.91% poloxamer 188), n = 3, read-out: AUC0-24 h",0.663 ± 0.157 µM·h
same,AUC(0-t),"male beagle dogs, single SC 12 mg/kg, 500 mg/mL solution X (5.00% ethanol, 1.91% poloxamer 188), n = 3, read-out: AUC0-168 h",6.01 ± 1.87 µM·h
same,AUC(0-t),"male beagle dogs, single SC 12 mg/kg, 500 mg/mL solution X (5.00% ethanol, 1.91% poloxamer 188), n = 3, read-out: AUC0-672 h",46.1 ± 32.5 µM·h
same,AUC(0-t),"male beagle dogs, single SC 12 mg/kg, 500 mg/mL solution X (5.00% ethanol, 1.91% poloxamer 188), n = 3, read-out: AUC0-1344 h",90.8 ± 60 µM·h
same,AUC(0-t),"male beagle dogs, single SC 12 mg/kg, 500 mg/mL solution X (5.00% ethanol, 1.91% poloxamer 188), n = 3, read-out: AUC0-1680 h",106 ± 68 µM·h
same,AUC(0-t),"male beagle dogs, single SC 12 mg/kg, 500 mg/mL solution X (5.00% ethanol, 1.91% poloxamer 188), n = 3, read-out: AUC0-2016 h",116 ± 75 µM·h
same,AUC(0-t),"male beagle dogs, single SC 12 mg/kg, 500 mg/mL solution X (5.00% ethanol, 1.91% poloxamer 188), n = 3, read-out: AUC0-2253 h",124 ± 44 µM·h
same,AUC(0-t),"male beagle dogs, single SC 12 mg/kg, 500 mg/mL solution X (5.00% ethanol, 1.91% poloxamer 188), n = 3, read-out: AUC0-2688 h",130 ± 83 µM·h
same,AUC(0-t),"male beagle dogs, single SC 12 mg/kg, 500 mg/mL solution X (5.00% ethanol, 1.91% poloxamer 188), n = 3, read-out: AUC0-3024 h",135 ± 86 µM·h
same,AUC(0-t),"male beagle dogs, single SC 12 mg/kg, 500 mg/mL solution X (5.00% ethanol, 1.91% poloxamer 188), n = 3, read-out: AUC0-4032 h",145 ± 90 µM·h
same,AUC(0-t),"male beagle dogs, single SC 12 mg/kg, 500 mg/mL solution X (5.00% ethanol, 1.91% poloxamer 188), n = 3, read-out: AUC0-4368 h",148 ± 91 µM·h
same,AUC(0-inf),[1],219 ± 54 µM·h
same,Cmax,[1],353 ± 148 nM
same,Tmax,[1],13 ± 8.54 days
same,half-life,[1],14.7 days
same,AUC(0-t),"n = 3 dogs, SC 12 mg/kg, solution T, 400 mg/mL, read-out: AUC0-24 h",2.64 ± 0.5 µM·h
same,AUC(0-t),"n = 3 dogs, SC 12 mg/kg, solution T, 400 mg/mL, read-out: AUC0-168 h",36 ± 26.2 µM·h
same,AUC(0-t),"n = 3 dogs, SC 12 mg/kg, solution T, 400 mg/mL, read-out: AUC0-336 h",76.1 ± 46.7 µM·h
same,AUC(0-t),"n = 3 dogs, SC 12 mg/kg, solution T, 400 mg/mL, read-out: AUC0-672 h",148 ± 51 µM·h
same,AUC(0-t),"n = 3 dogs, SC 12 mg/kg, solution T, 400 mg/mL, read-out: AUC0-1334 h",197 ± 48 µM·h
same,AUC(0-t),"n = 3 dogs, SC 12 mg/kg, solution T, 400 mg/mL, read-out: AUC0-2016 h",213 ± 53 µM·h
same,AUC(0-t),"n = 3 dogs, SC 12 mg/kg, solution T, 400 mg/mL, read-out: AUC0-2352 h",216 ± 54 µM·h
same,AUC(0-inf),[2],141 ± 14 µM·h
same,Cmax,[2],175 ± 29 nM
same,Tmax,[2],14.3 ± 11.5 days
same,half-life,[2],18.3 days
same,AUC(0-t),"n = 3 dogs, SC 12 mg/kg, solution U, 500 mg/mL, read-out: AUC0-24 h",1.8 ± 0.85 µM·h
same,AUC(0-t),"n = 3 dogs, SC 12 mg/kg, solution U, 500 mg/mL, read-out: AUC0-168 h",12.9 ± 5.1 µM·h
same,AUC(0-t),"n = 3 dogs, SC 12 mg/kg, solution U, 500 mg/mL, read-out: AUC0-336 h",33.9 ± 14.2 µM·h
same,AUC(0-t),"n = 3 dogs, SC 12 mg/kg, solution U, 500 mg/mL, read-out: AUC0-672 h",78.5 ± 11.4 µM·h
same,AUC(0-t),"n = 3 dogs, SC 12 mg/kg, solution U, 500 mg/mL, read-out: AUC0-1334 h",118 ± 6 µM·h
same,AUC(0-t),"n = 3 dogs, SC 12 mg/kg, solution U, 500 mg/mL, read-out: AUC0-2016 h",133 ± 11 µM·h
same,AUC(0-t),"n = 3 dogs, SC 12 mg/kg, solution U, 500 mg/mL, read-out: AUC0-2352 h",136 ± 12 µM·h
same,Cmax,"n = 3 dogs, SC 12 mg/kg, solution W, 400 mg/mL",200 ± 90 nM
same,AUC(0-t),"n = 3 dogs, SC 12 mg/kg, solution W, 400 mg/mL, read-out: AUC0-24 h",0.505 ± 0.194 µM·h
same,AUC(0-t),"n = 3 dogs, SC 12 mg/kg, solution W, 400 mg/mL, read-out: AUC0-168 h",6.82 ± 3.38 µM·h
same,AUC(0-t),"n = 3 dogs, SC 12 mg/kg, solution W, 400 mg/mL, read-out: AUC0-672 h",65.1 ± 43.1 µM·h
same,AUC(0-t),"n = 3 dogs, SC 12 mg/kg, solution W, 400 mg/mL, read-out: AUC0-1344 h",123 ± 54 µM·h
same,AUC(0-t),"n = 3 dogs, SC 12 mg/kg, solution W, 400 mg/mL, read-out: AUC0-1680 h",142 ± 50 µM·h
same,AUC(0-t),"n = 3 dogs, SC 12 mg/kg, solution W, 400 mg/mL, read-out: AUC0-2016 h",154 ± 47 µM·h
same,AUC(0-t),"n = 3 dogs, SC 12 mg/kg, solution W, 400 mg/mL, read-out: AUC0-2253 h",164 ± 44 µM·h
same,AUC(0-t),"n = 3 dogs, SC 12 mg/kg, solution W, 400 mg/mL, read-out: AUC0-2688 h",170 ± 42 µM·h
same,AUC(0-t),"n = 3 dogs, SC 12 mg/kg, solution W, 400 mg/mL, read-out: AUC0-3024 h",174 ± 41 µM·h
same,AUC(0-t),"n = 3 dogs, SC 12 mg/kg, solution W, 400 mg/mL, read-out: AUC0-4032 h",181 ± 39 µM·h
same,AUC(0-t),"n = 3 dogs, SC 12 mg/kg, solution W, 400 mg/mL, read-out: AUC0-4368 h",182 ± 38 µM·h
